For test [1], the system named is human neuronal calcium channel α2 and β1 subunits, expressed in Xenopus laevis oöcytes. The test is described as follows: Two-electrode voltage clamp of barium currents in Xenopus laevis oöcytes injected with α2 and β1 transcripts (no α1D; comparison). It counts as cell-based. To be noted: Bay K 8644; n=11. Background: Two-electrode voltage clamp is typically applied to oocytes expressing channels or transporters.

For test [2], the system named is human neuronal calcium channel α1D (SEQ ID No. 1), α2 (SEQ ID No. 11) and β1 (SEQ ID No. 9) subunits, expressed in HEK 293 cells. As to the kind of experiment: Whole-cell patch clamp of barium currents in transiently transfected HEK 293 cells. It counts as cell-based. As to conditions: 1 µM Bay K 8644. On the procedure:
Pflugers Arch. 391:85-100].
Two days after transient transfection of HEK 293 cells with α1, α2 and β1 subunit-encoding cDNA and the lacZ gene, individual transfectants were assayed for voltage-dependent barium currents. The currents in nine transfectants were recorded.
For orientation: In patch-clamp work, channel activity is measured electrically.

The test system of test [3] is human neuronal calcium channel α1D and α2 subunits, expressed in Xenopus laevis oöcytes. The test is described as follows: Two-electrode voltage clamp of barium currents in Xenopus laevis oöcytes injected with α1D and α2 transcripts. It counts as cell-based. To be noted: Bay K 8644; very small currents (15-30 nA); holding potential -90 mV. An excerpt: Plasmids pVDCC III.RBS(A), containing of pcDNA1 and the α1D cDNA that begins with a ribosome binding site and the eighth ATG codon of the coding sequence (see Example III.A.3.d), plasmid pHBCaCHα1A containing of pcDNA1 and an α2 subunit cDNA (see Example IV), and plasmid pHBCaCHβ1bRBS (A) containing pcDNA1 and the β1 DNA lacking intron sequence and containing a ribosome binding site (see Example III), were linearized by restriction digestion. The α1D cDNA- and α2 subunit-encoding plasmids were digested with XhoI, and the β1 subunit-encoding plasmid was digested with EcoRV. The DNA insert was transcribed with T7 RNA polymerase.

Test [4] relates to human neuronal calcium channel α1D (SEQ ID No. 1), α2 (SEQ ID No. 11) and β1 (SEQ ID No. 9) subunits, stably expressed in HEK 293 cells. The test is described as follows: Whole-cell patch clamp of barium currents in stably transfected HEK 293 cells. As to conditions: Bay K 8644 1 µM.

In the case of `COC(=O)C1=C(C)NC(C)=C([N+](=O)[O-])C1c1ccccc1C(F)(F)F` (stereo not drawn) [Bay K 8644], the “sensitivity of inward barium currents to the compound” value in test [1] is given as “insensitive”. Also, the “effect on inward barium current” value in test [2] (holding potential -90 mV, 15 mM Ba2+ bath, one transfectant) is recorded as “significantly enhanced in magnitude”. In addition, the “largest inward barium current in the presence of the compound” value in test [2] (membrane depolarized to 0 mV from holding potential -90 mV) was -160 pA. For the same compound, the “response of barium currents to the compound” value in test [3] was “little or no response”. The “barium current during application of the compound” value in test [4] (depolarized to -10 mV from holding potential -90 mV, approximately 35pA in its absence) was “approximately 75 pA”. Further, in test [4] (same cell, series of depolarizing voltages), the “shift of the current-voltage relation” value is listed as “about -10 mV”.

Source of the values: EP1469074B1, “Human calcium channel compositions and methods” (priority 1991, dated 1993).
